The values that follow are results of earlier work, collected in US9498464B2, “Treatment of arterial wall by combination of RAAS inhibitor and HMG-CoA reductase inhibitor” (ARTSKIN d.o.o., priority 2011, dated 2016).

The subject of this data set is arterial stiffness. To be noted: 12 weeks, 80 mg then 160 mg/day, patients with type 2 diabetes and hypertension.

For `CCCCC(=O)N(Cc1ccc(-c2ccccc2-c2nnn[nH]2)cc1)[C@H](C(=O)O)C(C)C` [valsartan], the “arterial stiffness (pulse wave analysis)” value is given as “improves arterial stiffness”.
